Test system: client-owned horses
Test: Owner assessment of change in quality of life (QOL) in a randomized, double-blinded, placebo-controlled clinical study
Type: in vivo, horse
Description: The amelioration of the QOL in equines can be measured by an assessment, which can be performed for example by the owner or the veterinarian or by an animal care taker or by any other person, preferably by the owner. The owners of the horses are asked to assess the quality of life of their horses over a certain period of time, e.g. several days, such as 10, 14 or 21 days, compared to a reference time point, e.g. day 0. For assessment of QOL the owner is asked to consider certain QOL parameters such as attitude, energy level, human interactions, general behavior using a rating scheme. This assessment preferably relates to a certain period of time such as for example the last 24 hours in comparison to a previous point in time for example day 0. One possible rating scheme is to ask whether QOL has improved, stayed the same or worsened compared to day 0.
The study is conducted as a multicenter prospective, randomized, double-blinded, placebo-controlled clinical study with parallel group design according to Good Clinical Practice (GCP) guidelines with client-owned horses.
Horses are examined before (Day 0) and at the end of treatment with the study drug (Day 10±1) by the study investigators. Physical examination, efficacy and QOL assessment, as well as blood sample collection is performed during the visits. The owners of included horses are also contacted by telephone on Day 5. […]

## CC(C)C(=O)OCC(=O)[C@@]12O[C@H](C3CCCCC3)OC1CC1C3CCC4=CC(=O)C=C[C@]4(C)C3[C@@H](O)C[C@@]12C (stereo partly drawn) [ciclosenide, (1 ip,16a)-16,17-[[(R)-Cyclohexylmethylene]bis(oxy)]-11-hydroxy-21-(2-methyl-1-oxopropoxy)pregna-1,4-diene-3,20-dione]
After 10(±1) days of treatment, 8 actuations twice daily for 5 days, then 12 actuations once daily for 5 days
  percentage of owners acknowledging an improvement in their horse's quality of life compared to Day 0: 69.33%
After five days of treatment, inhaled via EquiHaler, 8 actuations (343 μg each) twice daily
  percentage of owners reporting that the quality of life of their horse improved compared to Day 0: 60.19%

Source: US20230033224A1, “CICLESONIDE FOR AMELIORATING QUALITY OF LIFE (QOL) IN EQUINES” (Boehringer Ingelheim Vetmedica GmbH, priority 2020, published 2023)
